The values below are quoted from earlier work in US9476892B2, “Composition and method for measuring thallium influx and efflux” (priority 2007, dated 2016).

A value given as a limit tells only on which side of the number the result lay.

The conditions of the series: background statement, poorly soluble.

Regarding `[Cl][Tl]` [thallium chloride], the “concentration at which thallium chloride precipitates out of solution” value is at least 4500 µM.
